According to ChEMBL document CHEMBL3098037, “Evaluation of benzoic acid derivatives as sirtuin inhibitors” (Bioorg Med Chem Lett, 2014):
≈ marks a conversion by molar mass, not a printed value. Calls of active or inactive are those of the source. The rule behind the calls is not given here.

How the values were obtained:
Saccharomyces cerevisiae [1] = assay: Inhibition of Sir2p in yeast DMY2844 assessed as growth inhibition at 800 uM after 48 hrs
Saccharomyces cerevisiae [2] = assay: Inhibition of Sir2p in yeast DMY2844 assessed as growth inhibition after 48 hrs
A549 = assay: Cytotoxicity against human A549 cells; assay type: functional, cell-based
NCI-H460 = assay: Cytotoxicity against human NCI-H460 cells; assay type: functional, cell-based
DU-145 = assay: Cytotoxicity against human DU145 cells; assay type: functional, cell-based
[3] = Cytotoxicity against human MIAPaCa2 cells; assay type: functional, cell-based; settings: MIA PaCa-2
[4] = biological target: T1, NAD-dependent protein deacetylase sirtuin-2 (Homo sapiens) (UniProt Q8IXJ6); assay: Inhibition of SIRT2 (unknown origin) at 1.6 mM by fluorescence assay
T1 sequence (whole entry): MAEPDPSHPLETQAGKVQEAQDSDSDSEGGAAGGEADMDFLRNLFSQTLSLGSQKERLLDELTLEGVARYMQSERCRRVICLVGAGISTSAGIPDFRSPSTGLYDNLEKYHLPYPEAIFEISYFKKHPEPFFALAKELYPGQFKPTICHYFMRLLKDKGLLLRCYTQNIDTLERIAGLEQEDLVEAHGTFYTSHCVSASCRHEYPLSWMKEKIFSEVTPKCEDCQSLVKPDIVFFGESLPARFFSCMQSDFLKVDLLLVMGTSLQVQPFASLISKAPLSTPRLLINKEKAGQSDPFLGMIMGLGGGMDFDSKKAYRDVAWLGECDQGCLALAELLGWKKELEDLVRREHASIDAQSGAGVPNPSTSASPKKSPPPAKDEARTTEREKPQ

[5] = biological target: T2, NAD-dependent protein deacetylase sirtuin-1 (Homo sapiens) (UniProt Q96EB6); assay: Inhibition of SIRT1 (unknown origin) at 1.6 mM by fluorescence assay
T2 sequence (whole entry): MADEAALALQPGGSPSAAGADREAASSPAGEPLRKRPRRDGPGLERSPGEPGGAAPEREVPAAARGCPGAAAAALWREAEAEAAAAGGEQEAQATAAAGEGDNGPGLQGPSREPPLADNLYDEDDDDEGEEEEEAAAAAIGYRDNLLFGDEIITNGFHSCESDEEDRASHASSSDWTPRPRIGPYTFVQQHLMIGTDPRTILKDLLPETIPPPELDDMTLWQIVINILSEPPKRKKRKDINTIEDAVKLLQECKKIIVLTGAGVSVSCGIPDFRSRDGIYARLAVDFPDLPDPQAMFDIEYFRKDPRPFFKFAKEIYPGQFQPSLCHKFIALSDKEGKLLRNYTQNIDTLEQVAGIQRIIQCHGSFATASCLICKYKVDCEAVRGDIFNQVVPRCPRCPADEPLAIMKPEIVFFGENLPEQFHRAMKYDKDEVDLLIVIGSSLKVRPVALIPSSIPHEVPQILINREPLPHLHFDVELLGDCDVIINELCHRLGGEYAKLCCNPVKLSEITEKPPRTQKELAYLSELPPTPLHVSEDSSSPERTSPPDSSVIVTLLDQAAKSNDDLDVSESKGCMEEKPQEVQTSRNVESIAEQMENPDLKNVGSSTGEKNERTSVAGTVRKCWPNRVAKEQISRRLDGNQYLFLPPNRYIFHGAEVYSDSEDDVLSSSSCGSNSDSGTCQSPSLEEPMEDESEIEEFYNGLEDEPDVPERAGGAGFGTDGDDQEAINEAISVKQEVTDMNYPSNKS

Row | SMILES | inhibition (Saccharomyces cerevisiae [1]) | MIC (Saccharomyces cerevisiae [2]) | also measured
1 | CN(C)c1ccccc1 | inactive |  | 
2 | CN(C)c1ccc(Br)cc1 | inactive |  | 
3 | CN(C)c1cccc(C(=O)O)c1 | inactive |  | 
4 | CC[n+]1c(C=CC=C2N(C)c3ccccc3C2(C)C)sc2ccccc21 |  |  | IC50 (A549): 10 nM; IC50 (NCI-H460): 10 nM; IC50 (DU-145): 10 nM; IC50 [3]: 10 nM
5 | CNc1ccc(C(=O)O)cc1 |  | 400 µM (≈ 60.5 µg/mL) | 
6 | CN(C)c1ccc(S(=O)(=O)O)cc1 | inactive |  | 
7 | CC(C)(C)c1ccc(C(=O)O)cc1 |  | 50 µM (≈ 8.91 µg/mL) | inhibition [4]: 28%; inhibition [5]: 54.8%
8 | O=C(O)c1ccccc1 | inactive |  | 
9 | Nc1ccc(C(=O)O)cc1 |  | 800 µM (≈ 110 µg/mL) | 
10 | CN(C)c1ccc([N+](=O)[O-])cc1 | inactive |  | 
11 | CN(C)c1ccccc1C(=O)O | inactive |  | 

More lines, main results first:

Row | inhibition (Saccharomyces cerevisiae [1]) | MIC (Saccharomyces cerevisiae [2]) | SMILES | also measured
12 |  | 200 µM (≈ 32.8 µg/mL) | CC(C)c1ccc(C(=O)O)cc1 | 
13 | inactive |  | C[N+](C)(C)c1ccc(C(=O)[O-])cc1 | 
14 |  | 800 µM (≈ 109 µg/mL) | Cc1ccc(C(=O)O)cc1 | 
15 |  | 200 µM (≈ 33 µg/mL) | CN(C)c1ccc(C(=O)O)cc1 | inhibition [4]: 30.3%; inhibition [5]: 25.3%
16 |  | 400 µM (≈ 71.7 µg/mL) | COC(=O)c1ccc(N(C)C)cc1 | 
17 | inactive |  | CN(C)c1ccc(C(N)=O)cc1 | 
